In US8481539B2, “Alkynylaryl compounds and salts thereof, pharmaceutical compositions comprising same, methods of preparing same and uses of same” (Bayer Intellectual Property GmbH, priority 2007, dated 2013):

Columns and labels:
Assay type in all cases: biochemical
[1] = target: T1, Tie-2 (Homo sapiens, UniProt Q02763); experiment: Tie-2-Kinase HTRF-Assay (assay 2); settings: pIC50 class; 10 μM ATP; read-out: Enzymatic Tie 2 activity (assay 2)
T1 construct: fusion protein of GST and the intracellular domains of Tie-2; GST; made in house; host or cells: insect cells (Hi-5)
Excerpt: Tie2-inhibitory activity of compounds of the present invention was quantified employing two Tie2 HTRF assay as described in the following paragraphs.
A recombinant fusion protein of GST and the intracellular domains of Tie-2, expressed in insect cells (Hi-5) and purified by Glutathion-Sepharose affinity chromatography was used as kinase. Alternatively, commercially available GST-Tie2-fusion protein (Upstate Biotechnology, Dundee, Scotland) can be used As substrate for the kinase reaction the biotinylated peptide biotin-Ahx-EPKDDAYPLYSDFG (C-terminus in amid form) was used which can be purchased e.g. from the company Biosynthan GmbH (Berlin-Buch, Germany). Detection of phosphorylated product is achieved specifically by a trimeric detection complex consisting of the phosphorylated substrate, streptavidin-XLent (SA-XLent) which binds to biotin, and Europium Cryptate-labeled anti-phosphotyrosine antibody PT66 which binds to phosphorylated tyrosine.
Tie-2 (3.5 ng/measurement point) was incubated for 60 min at 22° C. in the presence of 10 μM adenosine-tri-phosphate (ATP) and 1 μM substrate peptide (biotin-Ahx-EPKDDAYPLYSDFG-NH2) with different concentrations of test compounds (0 μM and concentrations in the range 0.001-20 μM) in 5 μl assay buffer [50 mM Hepes/NaOH pH 7, 10 mM MgCl2, 0.5 mM MnCl2, 1.0 mM dithiothreitol, 0.01% NP40, protease inhibitor mixture (“Complete w/o EDTA” from Roche, 1 tablet per 2.5 ml), 1% (v/v) dimethylsulfoxide]. The reaction was stopped by the addition of 5 μl of an aqueous buffer (25 mM Hepes/NaOH pH 7.5, 0.28% (w/v) bovine serum albumin) containing EDTA (90 mM) and the HTRF (Homogeneous Time Resolved Fluorescence) detection reagents streptavidine-XLent (0.2 μM, from Cis Biointemational, Marcoule, France) and PT66-Eu-Chelate (0.3 ng/μl; a europium-chelate labelled anti-phospho-tyrosine antibody from Perkin Elmer).
(§1) The resulting mixture was incubated 1 h at 22° C. to allow the binding of the biotinylated phosphorylated peptide to the streptavidine-XLent and the PT66-Eu-Chelate. Subsequently the amount of phosphorylated substrate peptide was evaluated by measurement of the resonance energy transfer from the PT66-Eu-Chelate to the streptavidine-XLent. Therefore, the fluorescence emissions at 620 nm and 665 nm after excitation at 350 nm was measured in a HTRF reader, e.g. a Rubystar (BMG Labtechnologies, Offenburg, Germany) or a Viewlux (Perkin-Elmer). The ratio of the emissions at 665 nm and at […] was taken as the measure for the amount of phosphorylated substrate peptide. The data were normalised (enzyme reaction without inhibitor=0 (% inhibition, all other assay components but no enzyme=100% inhibition) and IC50 values were calculated by a 4 parameter fit using an inhouse software.

[2] = target: T2, human VEGFR2 (Homo sapiens, UniProt P35968); experiment: VEGFR2 HTRF Assay (assay 5); settings: pIC50 class; 10 μM ATP; read-out: Enzymatic VEGFR2 activity (assay 5)
T2 construct: GST-tagged recombinant kinase domain of the human VEGFR2; GST; host or cells: SF-9 cells
Excerpt: Assay 5: VEGFR2 HTRF Assay
VEGFR2 inhibitory activity of compounds of the present invention was quantified employing the VEGFR2 HTRF assay as described in the following paragraphs.
GST-tagged recombinant kinase domain of the human VEGFR2 expressed in SF-9 cells was used as kinase. As substrate for the kinase reaction the biotinylated peptide biotin-Ahx-DFGLARDMYDKEYYSVG (C-terminus in acid form) was used which can be purchased e.g. form the company Biosynthan GmbH (Berlin-Buch, Germany). VEGFR2 was incubated for 45 min at 22° C. in the presence of different concentrations of test compounds in 5 μl assay buffer [50 mM Hepes/NaOH pH 7.0, 25 mM MgCl2, 5 mM MnCl2, 1.0 mM dithiothreitol, 0.1 mM sodium ortho-vanadate, 10 μM adenosine-tri-phosphate (ATP), 0.5 μM substrate, 0.001% (v/v) Nonidet-P40 (Sigma), 1% (v/v) dimethylsulfoxide]. The concentration of VEGFR2 was adjusted depending of the activity of the enzyme lot and was chosen appropriate to have the assay in the linear range. The reaction was stopped by the addition of 5 μl of a solution of HTRF detection reagents (0.1 μM streptavidine-XLent and 2 nM PT66-Eu-Chelate, an europium-chelate labelled anti-phospho-tyrosine antibody from Perkin Elmer) in an aqueous EDTA-solution (125 mM EDTA, 0.2% (w/v) bovine serum albumin in 50 mM HEPES/NaOH pH 7.0).
as §1, with “incubated for” for “incubated”, “substrate” for “substrate peptide”, “substrate.” for “substrate peptide.”, “normalized” for “normalised”, “inhibitor=0%” for “inhibitor=0 (%”

[3] = target: T3, human insuline receptor (Ins-R) (Homo sapiens, UniProt P06213); experiment: Insulin Receptor HTRF Assay (assay 4); settings: pIC50 class; 10 μM ATP; read-out: Enzymatic InsR activity (assay 4)
T3 construct: GST-tagged recombinant kinase domain of the human insuline receptor; GST; purchased ProQinase, Freiburg, Germany; host or cells: SF-9 cells
Protocol: Assay 4: Insulin Receptor HTRF Assay
Inhibitory activity of compounds against the kinase activity of the insulin receptor was quantified employing the Ins-R HTRF assay as described in the following paragraphs.
GST-tagged recombinant kinase domain of the human insuline receptor (Ins-R, purchase from ProQinase, Freiburg, Germany) expressed in SF-9 cells was used as kinase. As substrate for the kinase reaction biotinylated poly-(Glu, Tyr) (Cis biointernational, France) was used.
Ins-R was incubated for 20 min at 22° C. in the presence of different concentrations of test compounds in 5 μl assay buffer [50 mM Hepes/NaOH pH 7, 15 mM MnCl2, 1 mM dithiothreitol, 0.1 μM sodium ortho-vanadate, 0.015% (v/v) PEG20000, 10 μM adenosine-tri-phosphate (ATP), 0.3 μg/ml substrate, 1% (v/v) dimethylsulfoxide]. The concentration of Ins-R was adjusted depending of the activity of the enzyme lot and was chosen appropriate to have the assay in the linear range, typical concentrations were in the range of 10 pg/μl. The reaction was stopped by the addition of 5 μl of a solution of HTRF detection reagents (0.1 μM streptavidine-XLent and 1 nM PT66-Eu-Chelate, an europium-chelate labelled anti-phospho-tyrosine antibody from Perkin Elmer) in an aqueous EDTA-solution (80 mM EDTA, 0.2% (w/v) bovine serum albumin in 50 mM HEPES/NaOH pH 7.0).
as §1, with “substrate” for “substrate peptide”, “substrate.” for “substrate peptide.”, “inhibitor=0%” for “inhibitor=0 (%”

T2 sequence (P35968 834-1162 limits assumed): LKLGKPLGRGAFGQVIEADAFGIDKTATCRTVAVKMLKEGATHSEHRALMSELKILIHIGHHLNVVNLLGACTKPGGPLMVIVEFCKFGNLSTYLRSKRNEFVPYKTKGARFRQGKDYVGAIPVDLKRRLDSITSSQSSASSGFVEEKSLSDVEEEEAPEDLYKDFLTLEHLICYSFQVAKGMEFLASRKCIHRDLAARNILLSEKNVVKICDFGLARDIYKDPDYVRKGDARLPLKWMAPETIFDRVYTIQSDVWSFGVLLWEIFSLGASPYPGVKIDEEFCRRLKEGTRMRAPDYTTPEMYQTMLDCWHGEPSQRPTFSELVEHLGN
T3 sequence (P06213 1023-1298 limits assumed): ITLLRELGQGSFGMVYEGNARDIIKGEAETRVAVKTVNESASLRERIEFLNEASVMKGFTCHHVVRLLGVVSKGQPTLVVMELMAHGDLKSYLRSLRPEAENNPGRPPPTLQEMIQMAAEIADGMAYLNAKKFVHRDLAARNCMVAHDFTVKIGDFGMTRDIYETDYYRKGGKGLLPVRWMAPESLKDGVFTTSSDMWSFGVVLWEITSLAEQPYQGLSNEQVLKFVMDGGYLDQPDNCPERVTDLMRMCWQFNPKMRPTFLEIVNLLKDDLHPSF
T1 sequence (Q02763 770-1124 limits assumed, species assumed): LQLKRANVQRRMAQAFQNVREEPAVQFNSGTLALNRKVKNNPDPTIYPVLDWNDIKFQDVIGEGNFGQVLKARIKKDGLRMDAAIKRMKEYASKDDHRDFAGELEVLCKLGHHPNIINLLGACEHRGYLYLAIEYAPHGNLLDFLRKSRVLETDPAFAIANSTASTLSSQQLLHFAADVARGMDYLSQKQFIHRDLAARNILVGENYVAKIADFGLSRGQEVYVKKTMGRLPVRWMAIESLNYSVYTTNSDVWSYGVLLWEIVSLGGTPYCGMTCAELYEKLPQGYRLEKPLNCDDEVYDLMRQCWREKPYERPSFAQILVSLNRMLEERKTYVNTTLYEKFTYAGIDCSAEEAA

IC50 [1]: < 1000 nM
IC50 [2]: < 1000 nM
IC50 [3]: ≥ 10000 nM
SMILES: Cn1ncc2c(C#Cc3cc(NC(=O)Nc4cccc(C(F)(F)F)c4)ccc3F)cncc21 [Example 2.6, 1-[4-Fluoro-3-(1-methyl-1H-pyrazolo[3,4-c]pyridin-4-ylethynyl)-phenyl]-3-(3-trifluoromethyl-phenyl)-urea]
